PubChem BioAssay AID248 (DTP/NCI, 2004)
“And” between values parts separate entries of the source, which are not always exact repeats. Equal values may be shown once. Inconclusive results and toxic doses are left out.

Test system: L1210 leukemia ip in BDF1 mice, survival T/C
Assay: NCI In Vivo Anticancer Drug Screen. Data for tumor model L1210 Leukemia (intraperitoneal) in B6D2F1 (BDF1) mice
Conditions: endpoint: mean survival time, higher = longer survival
How it was run: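 Survival endpoint. Drug-treated group vs vehicle group, expressed as T divided by C. Tumor passaged by transplantation.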

[1] = dose: 100.0 mg/kg/injection, schedule: Q01DX001 (ip), vehicle: saline
[2] = dose: 200.0 mg/kg/injection, schedule: Q01DX001 (ip), vehicle: saline
[3] = dose: 100.0 mg/kg/injection, schedule: Q01DX001 (ip), vehicle: acetone
[4] = dose: 200.0 mg/kg/injection, schedule: Q01DX001 (ip), vehicle: acetone
[5] = dose: 400.0 mg/kg/injection, schedule: Q01DX001 (ip), vehicle: acetone
[6] = dose: 100.0 mg/kg/injection, schedule: Q04DX003 (ip), vehicle: saline with Tween-80
[7] = dose: 200.0 mg/kg/injection, schedule: Q04DX003 (ip), vehicle: saline with Tween-80
[8] = dose: 400.0 mg/kg/injection, schedule: Q04DX003 (ip), vehicle: saline with Tween-80
[9] = dose: 50.0 mg/kg/injection, schedule: Q01DX009 (ip), vehicle: saline with Tween-80
[10] = dose: 100.0 mg/kg/injection, schedule: Q01DX009 (ip), vehicle: saline with Tween-80
[11] = dose: 100.0 mg/kg/injection, schedule: Q04DX002 (ip), vehicle: saline with Tween-80
[12] = dose: 200.0 mg/kg/injection, schedule: Q01DX009 (ip), vehicle: saline with Tween-80
[13] = dose: 200.0 mg/kg/injection, schedule: Q04DX002 (ip), vehicle: saline with Tween-80
[14] = dose: 400.0 mg/kg/injection, schedule: Q01DX009 (ip), vehicle: saline with Tween-80
[15] = dose: 400.0 mg/kg/injection, schedule: Q04DX002 (ip), vehicle: saline with Tween-80
[16] = dose: 50.0 mg/kg/injection, schedule: Q04DX002 (ip), vehicle: saline with Tween-80
[17] = dose: 50.0 mg/kg/injection, schedule: Q01DX001 (ip), vehicle: carboxymethylcellulose (CMC)
[18] = dose: 100.0 mg/kg/injection, schedule: Q01DX001 (ip), vehicle: carboxymethylcellulose (CMC)
[19] = dose: 200.0 mg/kg/injection, schedule: Q01DX001 (ip), vehicle: carboxymethylcellulose (CMC)
[20] = dose: 100.0 mg/kg/injection, schedule: Q01DX009 (ip), vehicle: Klucel (hydroxypropylcellulose) (HPC)
[21] = dose: 200.0 mg/kg/injection, schedule: Q01DX009 (ip), vehicle: Klucel (hydroxypropylcellulose) (HPC)
[22] = dose: 400.0 mg/kg/injection, schedule: Q01DX001 (ip), vehicle: saline
[23] = dose: 100.0 mg/kg/injection, schedule: Q01DX001 (ip), vehicle: saline with Tween-80

CCOC(=O)c1ccc(N=NC2C(=O)N(c3ccccc3)N=C2C)cc1 (configuration not stated)
T/C [1]: 96 % of control | T/C [2]: 96 % of control

Cc1cc(C(C)(C)C)ccc1S(=O)(=O)/C=C/c1ccccc1
T/C [3]: 95 % of control | T/C (dose: 100.0 mg/kg/injection, schedule: Q01DX009 (ip), vehicle: saline): 93 % of control | T/C [4]: 97 % of control | T/C (dose: 200.0 mg/kg/injection, schedule: Q01DX009 (ip), vehicle: saline): 88 % of control | T/C [5]: 92 % of control | T/C (dose: 400.0 mg/kg/injection, schedule: Q01DX009 (ip), vehicle: saline): 88 % of control

Fc1ccc(C(=S)Nc2ccccc2)cc1
T/C [3]: 104 % of control | T/C [4]: 98 % of control | T/C [5]: 92 % of control

COc1ccc(C(=Nc2ccccc2)C(=Nc2ccccc2)c2ccc(OC)cc2)cc1
T/C [6]: 88 % of control | T/C [7]: 89 % of control | T/C [8]: 91 % of control

Cc1c[n+]([O-])c(C)cc1N=Nc1ccc(N(C)C)cc1
T/C [9]: 111 % of control | T/C [10]: 95 % of control | T/C [11]: 89 % of control | T/C [12]: 90 % of control | T/C [13]: 99 % of control

Cc1cccc(C)c1NC(=S)NNC(=O)c1ccncc1
T/C [10]: 97 % of control | T/C [11]: 101 % of control | T/C [13]: 96 % of control | T/C [14]: 100 % of control | T/C [15]: 101 % of control

CCCN(CCC)S(=O)(=O)CCC
T/C [16]: 97 % of control | T/C [11]: 97 % of control | T/C [13]: 101 % of control

CN(C)CCCN=Cc1cc([N+](=O)[O-])ccc1O.CN(C)CCCN=Cc1cc([N+](=O)[O-])ccc1O.[Ni+2]
T/C [6]: 91 % of control

CCC1=CCC=CC1
T/C [17]: 101 % of control | T/C [18]: 104 % of control | T/C [19]: 104 % of control | T/C (dose: 400.0 mg/kg/injection, schedule: Q01DX001 (ip), vehicle: carboxymethylcellulose (CMC)): 109 % of control

C/C=C(C)/C=N/Nc1nnc(N/N=C/C(C)=C/C)c2ccccc12
T/C [17]: 95 % of control | T/C [18]: 95 % of control | T/C [19]: 103 % of control

O=S1OCCS1 (configuration not stated)
T/C (dose: 13.0 mg/kg/injection, schedule: Q01DX Z (sc), vehicle: saline): 100 % of control | T/C (dose: 36.0 mg/kg/injection, schedule: Q01DX Z (sc), vehicle: saline): 100 % of control

Cc1ccc(CNc2cccc([N+](=O)[O-])c2)cc1
T/C [20]: 98 % of control | T/C (dose: 100.0 mg/kg/injection, schedule: Q04DX003 (ip), vehicle: Klucel (hydroxypropylcellulose) (HPC)): 98 % of control | T/C [21]: 93 % of control | T/C (dose: 200.0 mg/kg/injection, schedule: Q04DX003 (ip), vehicle: Klucel (hydroxypropylcellulose) (HPC)): 96 % of control | T/C (dose: 400.0 mg/kg/injection, schedule: Q01DX009 (ip), vehicle: Klucel (hydroxypropylcellulose) (HPC)): 102 % of control | T/C (dose: 400.0 mg/kg/injection, schedule: Q04DX003 (ip), vehicle: Klucel (hydroxypropylcellulose) (HPC)): 101 % of control

NC(=S)N/N=C/c1cccc(CC(O)(C(F)(F)F)C(F)(F)F)n1
T/C (dose: 12.5 mg/kg/injection, schedule: Q01DX009 (ip), vehicle: saline with Tween-80): 97 % of control | T/C (dose: 25.0 mg/kg/injection, schedule: Q01DX009 (ip), vehicle: saline with Tween-80): 95 % of control | T/C [9]: 93 % of control

CN1CCN(C)P1N1CCCC1
T/C [1]: 89 % of control | T/C [2]: 95 % of control | T/C [22]: 93 % of control

Cc1ccc(C(=O)C(F)(F)C(F)(F)C(F)(F)C(F)(F)C(F)(F)C(F)(F)C(F)(F)F)cc1
T/C [1]: 105 % of control | T/C (dose: 100.0 mg/kg/injection, schedule: Q04DX003 (ip), vehicle: saline): 93 % of control | T/C [2]: 102 % of control | T/C (dose: 200.0 mg/kg/injection, schedule: Q04DX003 (ip), vehicle: saline): 95 % of control | T/C [22]: 103 % of control | T/C (dose: 400.0 mg/kg/injection, schedule: Q04DX003 (ip), vehicle: saline): 92 % of control

O=Nc1ccc(/C=C/C(=O)O)cc1
T/C (dose: 50.0 mg/kg/injection, schedule: Q01DX001 (ip), vehicle: saline): 102 % of control | T/C [1]: 105 % of control | T/C [2]: 100 % of control | T/C [22]: 113 % of control

CC(C)(C)c1ccc2c(c1)CCCC2
T/C [9]: 93 % of control | T/C [10]: 89 % of control | T/C [12]: 96 % of control

Nc1cc(/C=C/c2ccc(/C=C/c3ccc(S(=O)(=O)F)cc3)cc2)nc(N)n1
T/C (dose: 50.0 mg/kg/injection, schedule: Q01DX001 (ip), vehicle: saline with Tween-80): 87 % of control | T/C [23]: 92 % of control

OCC1=CCC2c3[nH]c4ccccc4c3CCN2C1 (configuration not stated)
T/C [6]: 106 % of control | T/C [7]: 90 % of control

C/C(=N/NC(=O)c1ccccc1)c1ccc(Cl)cc1Cl
T/C (dose: 100.0 mg/kg/injection, schedule: Q04DX003 (ip), vehicle: other): 97 % of control | T/C (dose: 200.0 mg/kg/injection, schedule: Q04DX003 (ip), vehicle: other): 108 % of control

c1ccc2c(-c3c4ccccc4cc4ccccc34)c3ccccc3cc2c1
T/C (dose: 100.0 mg/kg/injection, schedule: Q04DX002 (ip), vehicle: Klucel (hydroxypropylcellulose) (HPC)): 91 % of control | T/C (dose: 200.0 mg/kg/injection, schedule: Q04DX002 (ip), vehicle: Klucel (hydroxypropylcellulose) (HPC)): 105 % of control | T/C (dose: 400.0 mg/kg/injection, schedule: Q04DX002 (ip), vehicle: Klucel (hydroxypropylcellulose) (HPC)): 91 % of control

CCOC(=O)/C(C#N)=C\c1ccc(N(C)C)cc1
T/C (dose: 100.0 mg/kg/injection, schedule: Q01DX Z (ip), vehicle: methylcellulose (MC)): 106 % of control | T/C (dose: 200.0 mg/kg/injection, schedule: Q01DX Z (ip), vehicle: methylcellulose (MC)): 108 % of control

CN1C2CC(OC3CCCCO3)C(C2)N1C (configuration not stated)
T/C [10]: 95 % of control | T/C [6]: 94 % of control | T/C (dose: 132.0 mg/kg/injection, schedule: Q04DX003 (ip), vehicle: saline with Tween-80): 100 % of control | T/C [12]: 100 % of control | T/C [7]: 102 % of control | T/C (dose: 300.0 mg/kg/injection, schedule: Q04DX003 (ip), vehicle: saline with Tween-80): 117 % of control | T/C [14]: 93 % of control | T/C [8]: 102 % of control

Nc1nc(SN=Nc2ccc([As](=O)(O)O)cc2)c2[nH]cnc2n1
T/C (dose: 0.5 mg/kg/injection, schedule: Q01DX Z (ip), vehicle: other): 110 % of control | T/C (dose: 0.7 mg/kg/injection, schedule: Q01DX Z (ip), vehicle: other): 114 % of control | T/C (dose: 1.25 mg/kg/injection, schedule: Q01DX015 (ip), vehicle: carboxymethylcellulose (CMC)): 106 % of control | T/C (dose: 1.3 mg/kg/injection, schedule: Q01DX Z (ip), vehicle: other): 107 % of control | T/C (dose: 2.5 mg/kg/injection, schedule: Q01DX015 (ip), vehicle: carboxymethylcellulose (CMC)): 115 % of control | T/C (dose: 10.0 mg/kg/injection, schedule: Q01DX015 (ip), vehicle: carboxymethylcellulose (CMC)): 159 % of control | T/C (dose: 11.0 mg/kg/injection, schedule: Q01DX Z (ip), vehicle: other): 151 % of control and 154 % of control | T/C (dose: 25.0 mg/kg/injection, schedule: Q## X001 (ip), vehicle: carboxymethylcellulose (CMC)): 113 % of control | T/C (dose: 50.0 mg/kg/injection, schedule: Q## X001 (ip), vehicle: carboxymethylcellulose (CMC)): 123 % of control | T/C (dose: 56.0 mg/kg/injection, schedule: Q01DX Z (ip), vehicle: other): 106 % of control

C(=N\Nc1nc2ccccc2s1)/c1ccc2ccccc2n1
T/C [20]: 96 % of control | T/C [21]: 96 % of control

CCOC(=O)c1nc(SC)n(Cc2ccccc2)c1C(=O)OCC
T/C (dose: 25.0 mg/kg/injection, schedule: Q04DX002 (ip), vehicle: saline with Tween-80): 94 % of control and 103 % of control | T/C [16]: 106 % of control and 91 % of control | T/C [23]: 95 % of control and 98 % of control | T/C [6]: 99 % of control | T/C (dose: 200.0 mg/kg/injection, schedule: Q01DX001 (ip), vehicle: saline with Tween-80): 102 % of control and 91 % of control | T/C [7]: 100 % of control | T/C (dose: 400.0 mg/kg/injection, schedule: Q01DX001 (ip), vehicle: saline with Tween-80): 95 % of control and 91 % of control | T/C [15]: 94 % of control and 101 % of control | T/C [8]: 99 % of control
